From patent US20100297015A1, “CANCER BIOMARKER AND USES THEREOF” (priority 2007, published 2010)

Tests used:
human GTPCH = assay: GCH1 siRNA transfection of GCHtet-off and MCF7 cells, expression of GTPCH and phosphor-Akt; format: cell-based; conditions: 10 nM siRNA, Lipofactamine RNAiMAX, 48 hours
Protocol: GCHtet-off cells (described above) and MCF7 cells (4×10^5/well) were cultured in a 24-well plate and transfected with 10 nM of GCH1 siRNA (comprising the sequences of Seq ID Nos: 1 and 2) and scramble siRNA (SCR), respectively using Lipofactamine RNAiMAX. After 48 hours, the cells were harvested and the expression of human GTPCH, phosphor-Akt and GAPDH was determined. The results are illustrated in FIG. 8. A correlation between human GTPCH expression and phosphor-Akt was observed.

GTPCH = conditions: competes with GTP, a substrate for GTPCH (Gross and Levi 1992); cited from earlier work

Compound	Akt phosphorylation (human GTPCH)	GTPCH expression (human GTPCH)	GTPCH protein activity (GTPCH)
GCH1 siRNA: siRNA comprising the sequences of Seq ID Nos: 1 and 2, designed to reduce GTPCH expression (chain 1 CCUAAACGAUGCUAUAUUUTT; chain 2 AAAUAUAGCAUCGUUUAGGTT; chemistry not given here)	Reduction	Downregulated	–
Nc1cc(O)nc(N)n1 [DAHP, 2,4-diamino-6-hydroxypyrimidine]	–	–	inhibits GTPCH protein activity
